Experimental data taken from patent US20140366440A1, “METHOD FOR PRODUCING CLONE SEEDLINGS” (OKAYAMA PREFECTURE, priority 2009, published 2014).

What was measured:
E. uro-grandis A = assay: Rooting of cuttings, oxidized glutathione solution sprayed to supporter; assay type: in vivo, crossbreed of eucalyptus urophylla and eucalyptus grandis; settings: three weeks
Experimental: A crossbreed of eucalyptus urophylla and eucalyptus grandis (hereinafter, abbreviated as an “E. uro-grandis”) (Line name: A) was used as a material of a cutting. Specifically, a graft grown to have a length of about 5 cm to 20 cm, about one to three joints, and about two to six leaves was cut out from a mother tree, and a tip of each leaf was cut off by cutting off about a half from the tip thereof. In this way, the cutting was prepared.
A composite soil of carbonized chaff, coconut fiber, and vermiculite which had been put into a seedling pot (3 cm in inner diameter×15 cm in height) in advance was used as a supporter. Oxidized glutathione was dissolved in water so that an oxidized glutathione concentration became 50 mg/L. The oxidized glutathione solution was thus prepared. The oxidized glutathione solution was sprayed to the seedling pot from the above by use of a watering can so that the supporter was soaked with the oxidized glutathione solution (50 mg/L) by spraying a spray amount of water of about 8.5 ml of the oxidized glutathione solution per seedling pot. Thereafter, a base of the cutting was planted to the supporter. After this planting, the cutting was bred for three weeks in a green house which shielded sunlight by 50%. In the green house, a high humidity (80% or more) was kept by frequently spraying mist. After three weeks from the planting, a rooting ratio was calculated from the number of rooted cuttings.
A seedling was bred in the same way as Example 4, except that a solution having an oxidized glutathione concentration of 200 mg/L was used as the oxidized glutathione solution.
A seedling was bred in the same way as Example 4, except that a solution having an oxidized glutathione concentration of 500 mg/L was used as the oxidized glutathione solution.
A seedling was bred in the same way as Example 4, except that a solution having an oxidized glutathione concentration of 1000 mg/L was used as the oxidized glutathione solution.

[1] = test system: E. globulus wild-type (tissue culture); assay: Rooting of tissue-culture shoots planted to supporter infiltrated with rooting medium containing oxidized glutathione; assay type: in vivo, Eucalyptus globulus; settings: for Rooting rate (%): 27 test pieces; for Number of rooted shoots: of 27 test pieces
Description: A foliage (shoot) grown to have a length of 2 cm to 5 cm was cut from a multiple shoot induced from a wild-type Eucalyptus globulus (hereinafter, abbreviated simply as an “E. globulus”). Inducing the multiple shoot followed a method described in Japanese Patent Application Publication, Tokukaihei, No. 8-228621 A. Specifically, a tissue (terminal bud and axillary bud) was collected from E. globulus (wild type), and the tissue thus collected was subjected to surface disinfection by immersing the tissue for twenty minutes in an sodium hypochlorite aqueous solution containing an amount of available chlorine of 1%. Then, the tissue which had been subjected to the surface disinfection was washed by sterilized water and was planted to a solid medium (MS medium containing sucrose of […], BA of 0.2 mg/L, and gellan gum of […]), and its bud was opened. Within three and four weeks after the culturing of the foliage was started, the culturing of the foliage was subcultured in a medium having a composition identical with that described above. […] Note that the foliages from the multiple shoot was grown in a medium having the composition identical with that used for forming the multiple shoot under the condition identical with that used for forming the multiple shoot.
(§1) A base of the shoot thus obtained was planted to a foaming phenolic resin porous supporter (Manufactured by Smithers-Oasis Company; Product name: Oasis). […] The base of the shoot was cultured for two months in carbon dioxide gas of 1000 ppm at a temperature of 25° C. under irradiation of red light having photosynthesis photon flux density of 51.3 μmol/m^2/S and having a wavelength component of 650 nm to 670 nm to a wavelength component of 450 nm to 470 nm at a ratio of 8.2:1.8. The culturing was carried out with a culture container, which was a cube container (maximum size of about 10 cm to 11.5 cm in length×10 cm to 11.5 cm in width×10.0 cm in height) having a shape whose bulge was slightly protruded. […] Carbon dioxide gas outside the culture container was allowed to enter the culture container through this carbon dioxide gas permeable membrane covering the opening. Accordingly, carbon dioxide gas concentration inside the culture container was about 1000 ppm due to the permeation of the carbon dioxide gas through the film covering the opening of the culture container. The culture container was irradiated with red light by use of a light irradiation device (Product name: CCFL unit, maker's name: Nippon Medical& Chemical Instruments CO., LTD.). Further, humidity in the culture container is adjusted by sealing the culture container with Parafilm.
(§2) Nine shoots were planted per culture container. A rooting rate was calculated from the number of test pieces of the shoot and the number of shoots (the number of rooted shoots) which had been rooted after the foliage was cultured for two months.

E. globulus (Clone B) = assay: Rooting of shoots with wounded base in rooting medium containing oxidized glutathione; assay type: in vivo, Eucalyptus globulus; settings: for Rooting rate (%): 9 test pieces; for Number of rooted shoots: of 9 test pieces
Experimental: as §1, §2
The culture was carried out in the same way as Example 1, except that genetically modified E. globulus (Line name: Clone B) was used and a base of the shoot was wounded by a pair of scissors. Note that the base of the shoot (the aforementioned cross-sectional surface) was cut in two directions orthogonal to each other by use of a pair of scissors, and therefore the base was wounded so as to have a cross-shaped wound seen from a front direction.

E. globulus (Clone I) = assay: Rooting of shoots with wounded base, line whose rooting is extremely difficult; assay type: in vivo, Eucalyptus globulus; settings: Example 22: 50 mg/L in medium
Experimental: as §1, §2

E. globulus (Clone H) = assay: as above; assay type: in vivo, Eucalyptus globulus; settings: Example 21: 50 mg/L in medium
Experimental: as §1, §2

E. globulus (Clone G) = assay: as above; assay type: in vivo, Eucalyptus globulus; settings: Example 20: 50 mg/L in medium
Experimental: as §1, §2

[2] = test system: E. globulus (wild-type F); assay: Rooting of shoots with wounded base in rooting medium containing oxidized glutathione; assay type: in vivo, Eucalyptus globulus; settings: Example 19: 50 mg/L in medium
Experimental: as §1, §2

E. globulus (Clone C) = assay: as above; assay type: in vivo, Eucalyptus globulus; settings: Example 16: 50 mg/L in medium
Experimental: as §1, §2

E. globulus (Clone D) = assay: as above; assay type: in vivo, Eucalyptus globulus; settings: Example 17: 50 mg/L in medium
Experimental: as §1, §2

[3] = Example 2: 50 mg/L in medium, two months
[4] = Example 3: 75 mg/L in medium, two months

oxidized glutathione
Rooting rate (%) (E. uro-grandis A; Example 4: 50 mg/L solution, spraying to supporter (about 8.5 ml per pot), 44 test pieces): 75.0%
Number of rooted shoots (E. uro-grandis A; Example 4: 50 mg/L, spraying to supporter, of 44 test pieces): 33
Rooting rate (%) (E. uro-grandis A; Example 5: 200 mg/L, spraying to supporter, 44 test pieces): 77.3%
Number of rooted shoots (E. uro-grandis A; Example 5: 200 mg/L, spraying to supporter, of 44 test pieces): 34
Rooting rate (%) (E. uro-grandis A; Example 6: 500 mg/L, spraying to supporter, 44 test pieces): 84.1%
Number of rooted shoots (E. uro-grandis A; Example 6: 500 mg/L, spraying to supporter, of 44 test pieces): 37
Rooting rate (%) (E. uro-grandis A; Example 7: 1000 mg/L, spraying to supporter, 176 test pieces): 72.7%
Number of rooted shoots (E. uro-grandis A; Example 7: 1000 mg/L, spraying to supporter, of 176 test pieces): 128
Rooting rate (%) ([1]; Example 1: 25 mg/L in medium, adding glutathione to rooting medium (with STS, ascorbic acid, IBA), cultured two months): 74.1%
Number of rooted shoots ([1]; Example 1: 25 mg/L in medium, two months): 20
Rooting rate (%) [1, 3]: 85.2%
Number of rooted shoots [1, 3]: 23
Rooting rate (%) [1, 4]: 51.9%
Number of rooted shoots [1, 4]: 14
Rooting rate (%) (E. globulus (Clone B); Example 14: 25 mg/L in medium): 88.9%
Number of rooted shoots (E. globulus (Clone B); Example 14: 25 mg/L in medium): 8
Rooting rate (%) (E. globulus (Clone B); Example 15: 75 mg/L in medium): 77.8%
Number of rooted shoots (E. globulus (Clone B); Example 15: 75 mg/L in medium): 7
Rooting rate (%) (E. globulus (Clone I); 5 test pieces): 20.0%
Number of rooted shoots (E. globulus (Clone I); of 5 test pieces): 1
Rooting rate (%) (E. globulus (Clone H); 5 test pieces): 40.0%
Number of rooted shoots (E. globulus (Clone H); of 5 test pieces): 2
Rooting rate (%) (E. globulus (Clone G); 18 test pieces): 33.3%
Number of rooted shoots (E. globulus (Clone G); of 18 test pieces): 6
Rooting rate (%) ([2]; 18 test pieces): 100.0%
Number of rooted shoots ([2]; of 18 test pieces): 18
Rooting rate (%) (E. globulus (Clone C); 27 test pieces): 96.3%
Number of rooted shoots (E. globulus (Clone C); of 27 test pieces): 26
Rooting rate (%) (E. globulus (Clone D); 18 test pieces): 88.9%
Number of rooted shoots (E. globulus (Clone D); of 18 test pieces): 16
